Where two headings read alike, the source gives them in different places.
Legend:
[1] = system: T47D human breast cancer cells; assay: Growth of T47D human breast cancer cells in culture (7 days, viable cell count); format: cell-based; settings: for Inhibition of basal (no E2) growth of T47D cells (in words): 10^−8 to 10^−5 M, data not shown; for Inhibition of E2-stimulated growth of T47D cells, single agent (in words): E2 10^−9 M added 1 h after agent, daily for 7 days, agent used alone, concentration–response in Figure 1A
Method: The MCF-7 cells were maintained in monolayer culture in Dulbecco's modification of Eagle's medium (DMEM) supplemented with 5% fetal bovine serum, glutamine (2 mM), nonessential amino acids (1%), and bovine insulin (1 μg ml^−1). The T47D human breast cancer cells were maintained in monolayer culture in RPMI-1640 medium supplemented with 10% fetal bovine serum, 100 IU ml^−1 penicillin, 100 μg ml^−1 streptomycin, 0.25 μg ml^−1 amphotericin B, and 8 μg ml^−1 bovine insulin in T-75 flasks with 2–3 medium changes per week. Cells were maintained at 37°C in an atmosphere of 5% CO2, 95% air. To evaluate the oestrogen-stimulated growth of these cells, they were released from monolayer using 0.25% trypsin/0.53 mM EDTA and suspended in oestrogen-free medium comprised of DMEM (high glucose, phenol red-free), supplemented with 10% charcoal-stripped bovine calf serum, 2 mM glutamine, 100 IU ml^−1 penicillin, and 100 μg ml^−1 streptomycin. One millilitre containing 1.2 × 10^5 cells was seeded into each well of a 24-well plate coated with collagen IV (BD Biosciences, Bedford, MA, USA). […] Control wells received the vehicle. Medium was changed every other day before treatment. One day after the last treatment, cells were trypsinised and resuspended in oestrogen-free medium, and counted using a haemacytometer following dilution with trypan blue. Viable cell number is reported.
T47D (1 × 10^5) cells were seeded into wells of collagen-coated plates in oestrogen-free medium. Medium was changed daily. Twenty-four hours after seeding, AFPep and/or Tam were added. One hour later E2 (10^−9 M) was added. Cells were treated daily for 7 days after which cells were harvested and counted in a hemacytometer. Mean viable cell number of six replicate wells ±s.e. was determined. (A) Concentration–response curve of each agent alone. Inhibition (%) of E2-stimulated growth is reported. (▪) Tam; (▴) AFPep. […] Mean viable cell number is reported.

[2] = system: MCF-7 human breast cancer xenografts; assay: MCF-7 human breast cancer xenograft under kidney capsule of SCID mice; format: in vivo, human (cells), SCID mice (host); settings: E2 supplementation, five mice per group
From the text: Ten million MCF-7 human breast cancer cells were harvested from culture, centrifuged into a pellet, solidified into a fibrin clot, and implanted under the kidney capsule of SCID mice as described previously ([Bennett et al, 1985], [2002], [2006]; [Mesfin et al, 2001]; [Parikh et al, 2005]). Oestrogen supplementation was accomplished by s.c. implantation of a 5 mm silastic tubing capsule containing solid E2 inserted on the day of tumour implantation. […] The tumour-bearing kidney was exposed during survival laparotomy at 14 and 28 days after implantation and tumour size was measured using a dissecting microscope equipped with an ocular micrometer, noting the long (D) and short (d) diameters of the tumour. Five replicate mice were included in each treatment group. Mean tumour volume (0.52d^2D) was calculated for each group, and used for display of growth curves. Significance of differences between groups was tested using the one-sided Wilcoxon rank sum test.
Pieces of MCF-7 tumour were implanted under the kidney capsule of SCID mice. Oestradiol was provided via an E2-containing silastic tubing subcutaneous implant.

[3] = Toxicity in MNU-exposed rats (body weight, organ weights, fur texture, cage activity); format: in vivo, Sprague–Dawley rats; settings: for Body weight / Uterine weight / Heart weight: 20 days; for Body weight: control 283±30; for Uterine weight: control 0.54±0.15; for Heart weight: control 1.10±0.14
From the text: [Swanson et al, 1997]). […] In the therapy model (human tumour xenografts growing in mice) and in the prevention model (MNU-induced mammary cancers in rats), the toxicity of […]

immature mouse uterus = assay: Immature mouse uterine growth assay; format: in vivo, Swiss mice; settings: uteri harvested 22 h later, five mice per group; for Growth of immature mouse uterus (in words): single agent i.p., Tam 1 μg or AFPep 10 μg
From the text: Control mice received the vehicle. Twenty-two hours later, uteri were harvested, trimmed free of connective tissue, and weighed. Uterine weights were normalised to donor mouse body weight. There were five replicate mice per group.
Twenty-two hours after treatment, uteri were harvested, weighed, and normalised to mouse body weight.

oestrogen receptor (ER) = assay: Inhibition of binding of [^3H]E2 to oestrogen receptor (rabbit uterine cytosol); settings: rabbit uterine cytosol 2.5 mg protein ml^−1, 20 μl of 10 nM 6,7-[^3H]E2, overnight at 4°C, pH 7.4, dextran-coated charcoal; triplicate
Method: Rabbit uteri (Pel-Freez Biological, Rogers, AR, USA) were used as a source of ER. Uteri were pulverised in a stainless-steel impact mortar under liquid nitrogen and homogenised (20% w/v) in buffer (10 mM Tris, pH 7.4, 1.5 mM EDTA, 10% glycerol, 10 mM monothioglycerol, and 10 mM sodium molybdate) on ice. Centrifugation (50 000 g) for 1 h yielded cytosol, which was adjusted with buffer to 2.5 mg protein ml^−1. All incubations were carried out in triplicate, each containing 100 μl of cytosol, 20 μl of 10 nM 6,7-[^3H]oestradiol (6,7-[^3H]E2), and 80 μl of antagonist. After incubation overnight at 4°C, tubes received 300 μl of dextran-coated charcoal suspension; tubes were agitated for 15 min, and then centrifuged (1000 g) for 15 min.
Rabbit uterine cytosol was used as a source of ER. Test agents (80 μl) at the final concentrations indicated were incubated in triplicate with 100 μl of cytosol, and 20 μl of 10 nM 6,7-[^3H]E2 (50 Ci mmol^−1). The concentration of the [^3H]E2 complex with receptor in the presence of the test agent is expressed as a percentage of the amount of complex formed in the absence of test agent.

[4] = system: phosphorylation of ER at serine 118; settings: cited from earlier work
From the text: Mechanistically, AFPep is quite different from Tam. […] In fact, in this study and ...

[5] = system: MNU-induced breast cancers in rats; assay: Prevention of MNU-induced mammary cancers in rats; settings: for Inhibition of tumour formation (in words): Tam 6.25 μg animal^−1 day^−1 or higher, AFPep 270 μg animal^−1 day^−1; for Incidence (percent of rats with one or more tumours when killed, approximately 120 days after MNU): 20 days from 10 days after MNU 50 mg kg^−1, n=30 rats, control 78%; for Volume (sum of the volumes of tumours in each group) / Multiplicity (total number of tumours/number of rats) / Latency (mean number of tumour-free days±s.d.): 20 days; for Volume (sum of the volumes of tumours in each group): control 69.0; for Multiplicity (total number of tumours/number of rats): control 2.1; for Latency (mean number of tumour-free days±s.d.): control 80±31
Method: Female rats were housed three per cage in a room maintained at 22±1°C, and artificially lighted for 12 h per day. At 50 days of age, rats received a single injection of MNU (50 mg kg^−1 body weight) or vehicle in the jugular vein. N-methyl-N-nitrosourea was administered to animals in the various treatment groups according to a predetermined randomisation chart, so as to ensure uniform distribution of the carcinogen across the groups. […] A control group of animals received daily 0.2 ml s.c. injections of saline for the same time period as AFPep administration and experienced the maximal number of tumours. Starting 30 days after MNU treatment, all rats were palpated weekly for detection of mammary tumours, noting number, location, and size. Tumour burden was determined noninvasively using calipers to measure the long (D) and short (d) diameter of each tumour. Assuming that tumours were ellipsoid shaped, tumour volume was estimated as (0.52d^2D). Cage activity of all animals was monitored daily for gross signs of toxicity. At necropsy, body weight and organ weights were assessed as indicators of toxicity.
Sprague–Dawley female rats (n=30 rats group^−1) received MNU (50 mg kg^−1) at the age of 50 days. […] Animals were palpated weekly. The incidence of tumours is shown as a function of time after carcinogen treatment.

[6] = set-up: method as in earlier work; settings: high doses; ref Mesfin et al, 2001; Bennett et al, 2002, 2006; Parikh et al, 2005; cited from earlier work
[7] = effective single-agent dose: AFPep 10 μg mouse^−1 day^−1 i.p. or Tam 1 μg mouse^−1 day^−1 p.o., over a 30-day period
[8] = suboptimal dose: AFPep 0.1 μg i.p., Tam 0.05 μg p.o. per mouse per day, single agents
[9] = higher dose: AFPep 270 or Tam 6.25 μg/rat/day
[10] = suboptimal dose: AFPep 100, Tam 0.05, or both (100+0.05) μg/rat/day
[11] = higher dose: AFPep 270 μg/rat/day s.c. or Tam 6.25 μg/rat/day oral gavage
[12] = higher dose: AFPep 270 (marked * P<0.05 vs control) or Tam 6.25 μg/rat/day
[13] = suboptimal dose: AFPep 100 μg/rat/day s.c., Tam 0.05 μg/rat/day oral gavage, or both (100+0.05)
[14] = suboptimal dose: AFPep 100, Tam 0.05, or both (100+0.05) μg/rat/day, AFPep and AFPep+Tam marked * P<0.05 vs control
[15] = higher dose: AFPep 270 μg/rat/day

CC/C(=C(\c1ccccc1)c1ccc(OCCN(C)C)cc1)c1ccccc1 [Tam, Tamoxifen, reference compound]
Inhibition of basal (no E2) growth of T47D cells (in words) [1]: neither Tam nor AFPep inhibited the basal (no E2) growth | Inhibition of E2-stimulated growth of T47D cells, single agent (in words) [1]: inhibited the E2-stimulated growth | Growth of MCF-7 tumour xenografts (in words) [2, 7]: completely prevented the growth of MCF-7 tumour xenografts | Growth of MCF-7 tumour xenografts (in words) [2, 8]: tumour growth occurred, although it was less than tumour growth in nontreated mice | Body weight [3, 9]: 273 ± 28 g | Effect on uterine growth (in words) ([3]; rats, low doses, whether or not AFPep was present): no effect on uterine growth | Uterine weight [3, 10]: 0.49 ± 0.17 g | Heart weight [3, 10]: 1.12 ± 0.13 g | Body weight [3, 10]: 282 ± 31 g | Growth of immature mouse uterus (in words) (immature mouse uterus): stimulates the growth of immature mouse uterus | Inhibition of binding of [^3H]E2 to ER (in words) (oestrogen receptor (ER)): concentration-dependent inhibition of E2 binding | Stimulation of phosphorylation of ER at serine 118 (in words) ([4]; following binding to receptor, ref Chen et al, 2002): stimulates phosphorylation of ER at serine 118 | Inhibition of tumour formation (in words) [5]: significant inhibition of tumour formation | Incidence (percent of rats with one or more tumours when killed, approximately 120 days after MNU) [5, 11]: 26% | Volume (sum of the volumes of tumours in each group) [5, 12]: 70.2 cm^3 | Multiplicity (total number of tumours/number of rats) [5, 9]: 0.5 tumours/rat | Latency (mean number of tumour-free days±s.d.) [5, 9]: 85 ± 15 days | Incidence (percent of rats with one or more tumours when killed, approximately 120 days after MNU) [5, 13]: 73% | Volume (sum of the volumes of tumours in each group) [5, 14]: 62.4 cm^3 | Multiplicity (total number of tumours/number of rats) [5, 10]: 1.3 tumours/rat | Latency (mean number of tumour-free days±s.d.) [5, 10]: 95 ± 36 days

cyclo(EKTOVNOGN) (head to tail) [AFPep]
Inhibition of basal (no E2) growth of T47D cells (in words) [1]: neither Tam nor AFPep inhibited the basal (no E2) growth | Inhibition of E2-stimulated growth of T47D cells, single agent (in words) [1]: inhibited the E2-stimulated growth | Growth of MCF-7 tumour xenografts (in words) [2, 7]: completely prevented the growth of MCF-7 tumour xenografts | Growth of MCF-7 tumour xenografts (in words) [2, 8]: tumour growth occurred, although it was less than tumour growth in nontreated mice | Uterine weight [3, 15]: 0.62 ± 0.17 g | Heart weight [3, 15]: 1.09 ± 0.13 g | Body weight [3, 9]: 280 ± 29 g | Effect on body weight, fur texture, cage activity, organ weights (in words) ([3]; rats, therapeutic doses for 2–3 weeks): no effect on body weight, fur texture, or cage activity during the lifespan of the animals, or on organ weights obtained at necropsy | Uterine weight [3, 10]: 0.52 ± 0.15 g | Heart weight [3, 10]: 1.12 ± 0.14 g | Body weight [3, 10]: 285 ± 24 g | Tam-induced growth of immature mouse uterus (in words) (immature mouse uterus; AFPep 10 μg i.p. 1 h before Tam 1 μg i.p., Figure 4 * P<0.05 vs Tam alone, Dunnett's test): significantly inhibits the Tam-induced growth of the immature mouse uterus | Growth of immature mouse uterus (in words) (immature mouse uterus): does not stimulate uterine growth | Inhibition of binding of [^3H]E2 to ER (in words) (oestrogen receptor (ER)): did not inhibit the binding of [^3H]E2 to ER | Stimulation of phosphorylation of ER at serine 118 (in words) ([4]; ref Bennett et al, 2006): did not stimulate phosphorylation of ER at serine 118 | Inhibition of phosphorylation of ER following ligand binding (in words) ([4]; stated in Discussion as function of AFPep, not measured in this paper): inhibit the phosphorylation of ER that follows ligand binding to ER | Toxicity or side effects in previous work (in words) [6]: no evidence of toxicity or side effects has been detected | Inhibition of tumour formation (in words) [5]: significant inhibition of tumour formation | Incidence (percent of rats with one or more tumours when killed, approximately 120 days after MNU) [5, 11]: 40% | Volume (sum of the volumes of tumours in each group) [5, 12]: 34.5^* cm^3 | Multiplicity (total number of tumours/number of rats) [5, 9]: 0.5 tumours/rat | Latency (mean number of tumour-free days±s.d.) [5, 9]: 88 ± 16 days | Incidence (percent of rats with one or more tumours when killed, approximately 120 days after MNU) [5, 13]: 63% | Volume (sum of the volumes of tumours in each group) [5, 14]: 39.1^* cm^3 | Multiplicity (total number of tumours/number of rats) [5, 10]: 1.1 tumours/rat | Latency (mean number of tumour-free days±s.d.) [5, 10]: 97 ± 33 days

Source: article PMC2360332 (British Journal of Cancer, 2007)
